# Laboratory results taken from ChEMBL document CHEMBL1158141, “A sorbicillinoid urea from an intertidal Paecilomyces marquandii” (2006).
# Tests used:
# Escherichia coli = experiment: Antibiotic activity against Escherichia coli ATCC 25922 by agar diffusion method; format: functional
# Bacillus subtilis = experiment: Antibiotic activity against Bacillus subtilis ATCC 6633 by agar diffusion method; format: functional
Structure (SMILES),inhibition zone (IZ) (Escherichia coli) [mm],inhibition zone (IZ) (Bacillus subtilis) [mm]
CC(C)[C@@H]1NC(=O)[C@H](Cc2ccccc2)NC1=O,8,9
CC(C)C[C@@H]1NC(=O)[C@H](Cc2ccccc2)NC1=O,8,10
